Assay results reported in paper PMC8131363 (Scientific Reports, 2021).
Like-named read-outs stand apart in the source and are kept apart here.

What was measured:
[1] = target: T1, cCaSR (Felis catus, UniProt C7FF08); test: cCaSR transiently expressed in HEK293/natClytin, agonist luminescence assay; type: cell-based; details: transiently expressed cCaSR; > 3 mM = maximal response not reached; read-out: cCaSR EC50
T1 sequence (C7FF08 1-1081): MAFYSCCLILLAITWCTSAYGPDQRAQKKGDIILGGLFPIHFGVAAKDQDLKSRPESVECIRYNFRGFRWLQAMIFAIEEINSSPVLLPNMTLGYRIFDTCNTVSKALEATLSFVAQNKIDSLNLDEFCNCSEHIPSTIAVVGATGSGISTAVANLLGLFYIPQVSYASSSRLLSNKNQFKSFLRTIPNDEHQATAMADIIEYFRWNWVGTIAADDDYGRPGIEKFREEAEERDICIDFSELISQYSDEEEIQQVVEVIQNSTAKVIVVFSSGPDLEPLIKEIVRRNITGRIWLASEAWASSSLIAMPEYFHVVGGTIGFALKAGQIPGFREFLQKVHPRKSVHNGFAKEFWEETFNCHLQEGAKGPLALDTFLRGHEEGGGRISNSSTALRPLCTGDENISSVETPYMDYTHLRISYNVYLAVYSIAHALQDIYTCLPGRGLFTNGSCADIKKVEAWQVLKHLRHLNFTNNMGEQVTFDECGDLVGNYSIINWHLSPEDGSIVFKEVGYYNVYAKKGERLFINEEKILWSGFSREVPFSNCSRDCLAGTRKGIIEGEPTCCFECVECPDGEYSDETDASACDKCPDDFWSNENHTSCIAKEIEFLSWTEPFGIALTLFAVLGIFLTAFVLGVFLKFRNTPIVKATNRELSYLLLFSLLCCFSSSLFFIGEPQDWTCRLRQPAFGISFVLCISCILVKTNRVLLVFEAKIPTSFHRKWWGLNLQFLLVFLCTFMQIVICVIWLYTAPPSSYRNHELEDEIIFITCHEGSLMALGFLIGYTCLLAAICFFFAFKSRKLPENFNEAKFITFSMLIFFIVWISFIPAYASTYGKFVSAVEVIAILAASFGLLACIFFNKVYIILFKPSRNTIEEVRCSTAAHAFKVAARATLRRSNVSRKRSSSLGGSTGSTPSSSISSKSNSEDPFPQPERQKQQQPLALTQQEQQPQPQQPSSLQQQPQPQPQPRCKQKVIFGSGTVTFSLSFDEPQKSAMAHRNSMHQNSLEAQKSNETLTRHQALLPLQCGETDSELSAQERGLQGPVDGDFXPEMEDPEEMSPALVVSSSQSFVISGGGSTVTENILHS
Description: The coding sequence of the Felis catus[52] and Homo sapiens[53] CaSR gene was synthesised by GeneArt (Thermo Fisher Scientific). The cat coding sequence was excised from the GeneArt construct and inserted in pcDNA3.1 for constitutive and transient expression or pcDNA5/ TO for inducible expression. For the human sequence the pcDNA6 vector as delivered by GeneArt was used without further sub-cloning.
All transient transfections were performed with Lipofectamine 2000 (Invitrogen) according to the manufacturer’s protocol.

[2] = target: T1, cCaSR
[3] = GSH at 2.5 mM
[4] = target: T1, cCaSR; test: cell-based
[5] = read-out: cCaSR activity, agonist assay, stable inducible cCaSR line, at least three wells
[6] = read-out: cCaSR stable EC50, stably expressed cCaSR, Fig. 6b, > 3 mM = maximal response not reached

SMILES	EC50 [1]	EC50 ([2]; agonist assay, stable inducible cCaSR line, > 0.01 M = maximal response not reached)	EC50 ([2]; read-out: EC50 Ago, Supplementary Table I, agonist assay, > 0.01 M = maximal response not reached)	EC50 [2, 5]	EC50 [2, 6]	pH of solution [3]	EC50 ([4]; EC50 (M), agonist assay, stable inducible cCaSR line, > 0.01 M = maximal response not reached)	EC50 ([4]; EC50 Ago (M), Supplementary Table I, agonist assay, > 0.01 M = maximal response not reached)	EC50 ([4]; cCaSR activity, agonist assay, stable inducible cCaSR line, at least three wells)	EC50 ([4]; cCaSR stable EC50(mM), stably expressed cCaSR, Fig. 6b, > 3 mM = maximal response not reached)
[Ca+2].[Cl-].[Cl-] [Ca^2+, CaCl2]	1.15 mM	1.62 mM	1.62 mM	1 to 10 mM	1.47 mM					
[Cl-].[Cl-].[Mg+2] [Mg^2+, MgCl2]	8.6 mM			> 10 mM	> 3 mM					
N[C@@H](CCC(=O)N[C@@H](CS)C(=O)NCC(=O)O)C(=O)O [Glutathione]	> 3 mM					3.48	0.00639 M	0.0064 M	0.001 to 0.01 M	> 0.003 M
